Key:
PCSK9 [1] = biological target: T1, PCSK9 (Homo sapiens, UniProt Q8NBP7); assay: SPR binding studies (BIACORE3000); conditions: 25° C., phosphate buffer pH 7.4; compounds run at 10 nM, 100 nM and 1 micro mole, concentration of the value not stated
Description: Instrumentation: BIACORE3000 from GE Life Sciences was used and the Interaction analysis was performed at 25° C.
Buffers: phosphate buffer pH 7.4 supplied by Biacore supplemented with 0.01% dimethyl sulfoxide (DMSO) was used as running buffer during the assay.
Immobilization of Ligand: Sensor chip CM5 was used for analysis. The sensor chip consists of a carboxymethyl-modified dextran polymer linked to a gold-covered glass support. The ligand was diluted to 10 micro gram/ml in 10 mM sodium acetate, pH5.0 and immobilized to the sensor chip, using amine coupling. Running buffer without DMSO was used during immobilization. The surface was activated by injecting a solution containing 0.2M N-ethyl-N′-dimethyl aminopropyl-carbodiimide (EDC) and 50 mM N-hydroxy succinimide (NHS). The system was set for Aim for immobilization of about 1000 RU and the surface was blocked by injecting 1 Mehanolamine at pH 8.5. Then the surface was washed with 50 mM NaOH by injecting two 30 second-pulses to remove off non covalently bound ligand and to stabilize the baseline (automated procedure). Activated dextran was used as a reference surface. To ensure highest sensitivity the SPR Detector response was normalized before running the assay. By calibrating the detector at various light intensities under Conditions of total internal reflection (automated procedure). Solvent correction for DMSO was also carried to minimize the error in data.
Assay Design: A binding assay was set up for different compounds at three different concentrations (10 nM, 100 nM and 1 micro mole), and were injected over the reference and Ligand flow cells at a flow rate of 30 micro liter/min. Each cycle consisted of a 1-min waiting period for monitoring of the baseline stability and 3 minute injection of compound with a 5 minute Undisturbed dissociation phase, and the surface was regenerated with 50 mM NaoH solution. Compound responses in the reference flow cell were subtracted with that of ligand and a solvent correction run was carried in between and the binding potential of the compounds was reported as relative response units (RU).
Target sequence in this assay (Q8NBP7 153-692): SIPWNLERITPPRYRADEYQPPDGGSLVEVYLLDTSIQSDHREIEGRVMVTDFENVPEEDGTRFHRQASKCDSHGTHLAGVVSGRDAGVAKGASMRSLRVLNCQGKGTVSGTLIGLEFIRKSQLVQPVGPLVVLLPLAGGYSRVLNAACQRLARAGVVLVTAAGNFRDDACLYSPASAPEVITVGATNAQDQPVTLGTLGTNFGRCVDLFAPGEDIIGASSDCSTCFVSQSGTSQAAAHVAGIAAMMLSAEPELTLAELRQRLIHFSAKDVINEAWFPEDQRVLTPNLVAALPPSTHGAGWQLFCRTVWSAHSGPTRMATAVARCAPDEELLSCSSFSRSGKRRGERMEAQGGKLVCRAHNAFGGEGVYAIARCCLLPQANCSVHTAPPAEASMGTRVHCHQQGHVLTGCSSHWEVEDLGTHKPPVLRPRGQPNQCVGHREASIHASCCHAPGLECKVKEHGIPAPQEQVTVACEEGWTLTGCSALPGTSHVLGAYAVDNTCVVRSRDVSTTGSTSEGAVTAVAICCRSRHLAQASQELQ

[2] = test system: LPS induced dyslipidemia model C57 mice; assay: LDL-C lowering activity in LPS induced dyslipidemia model C57 mice; format: in vivo; conditions: male C57 mice, i.p. or oral, 24 hours after LPS, vs Vehicle group
Description: Male C57 mice of 7-10 week age are grouped based on non-fasting LDL-C levels, on next day these mice were administered with Vehicle or test compounds (i.p. or oral) and 30 min after compound administration lipolysaccharide (LPS) was administered. After LPS administration all animals were kept on fasting for 24 hours, after that animals were bled and LDL-C was measured. The percent change in LDL-C in test compound group Vs Vehicle group was calculated.

high fat diet C57 mice = assay: LDL-C lowering activity in high fat diet C57 mice; format: in vivo; conditions: C57 mice on high fat diet, orally once a day, 4-6 week treatment
Description: The in-vivo LDL-c lowering for test compound was tested in C57 mice which were kept on high fat diet for 4 weeks and the blood was collected by retro-orbital sinus puncture method under light ether anesthesia on day 0 (pretreatment), animal are grouped based on LDL-C levels, after that 4-6 week treatment with vehicle or test compound orally once a day was given. On completion of treatment on day 28 day and or on day 42 of the treatment the blood was collected for LDL-C levels measurement. The percent change in LDL-C in test compound group Vs Vehicle group was calculated.

[3] = test system: HF-HC diet fed Syrian golden hamsters; assay: Lipid lowering effect in HF-HC diet fed hamster model; format: in vivo; design: concentration or dose not given beside the values; conditions: oral gavage once daily, day 14
Description: In this experiment, Syrian golden hamsters which were kept on high fat—high cholesterol (HF-HC) fructose diet for 2 weeks were divided into various groups based on LDL-C and Total cholesterol levels. The treatment was given by oral gavages once daily for 14 days. The blood was collected by retro-orbital sinus puncture method under light ether anesthesia on day 0 (pretreatment), and day 14 of the treatment for lipid levels measurements. The percent change in LDL-C in compound group Vs Vehicle group was calculated.

PCSK9 [4] = biological target: T1, PCSK9; assay: PCSK9-LDLR in vitro Binding Assay (ELISA)
Outline: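 Solid-phase ELISA: PCSK9 premixed with compound at varying concentrations added to immobilized recombinant LDLR-AB domain. Bound PCSK9 detected via biotinylated anti-His mAb and HRP-streptavidin, absorbance at 450 nm; EC50 by nonlinear regression from duplicate points.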
Target sequence in this assay (Q8NBP7 153-692): as above
Target sequence in this assay (Q8NBP7 31-152 partner limits assumed): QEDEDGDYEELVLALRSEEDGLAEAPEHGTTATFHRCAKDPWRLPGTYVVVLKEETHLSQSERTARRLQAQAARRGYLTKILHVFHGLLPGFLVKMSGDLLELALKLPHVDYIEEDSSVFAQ

Row | Compound | inhibition at 10 µM (PCSK9 [4]; Concentration 10 μM) [%] | inhibition at 100 µM (PCSK9 [4]; Concentration 100 μM) [%] | inhibition at 1 µM (PCSK9 [4]; Concentration 1 μM) [%] | % Change in LDL-C [2] [%] | also measured
1 | Cc1oc(-c2ccccc2)nc1CC1COC(C)(C(=O)NO)OC1 (single isomer, unassigned) [Example 4, N-(Hydroxy)-2-methyl-5-((5-methyl-2-phenyloxazol-4-yl)methyl)-1,3-dioxane-2-carboxamide] | 35 | 42 |  | −29.4 ± 4.1 | Relative response (RU) (PCSK9 [1]): 5.13 RU; % Change Vs Vehicle Control HDL-C (high fat diet C57 mice): −5%; % Change Vs Vehicle Control LDL-C (high fat diet C57 mice): −24%; % Change Vs Vehicle Control TC (high fat diet C57 mice): −14%; % Change Vs Vehicle Control TG (high fat diet C57 mice): −35%; % Change Vs Vehicle Control HDL-C [3]: −25%; % Change Vs Vehicle Control LDL-C [3]: −24%; % Change Vs Vehicle Control TC [3]: −27%; % Change Vs Vehicle Control TG [3]: −35%
2 | Cc1ccc(-c2nc(CC3COC(C)(C(=O)NCC4CCOCC4)OC3)c(C)o2)cc1 (stereo not shown) [Example 63, 2-methyl-5-c-((5-methyl-2-(p-tolyl)oxazol-4-yl)methyl)-N—((tetrahydro-2H-pyran-4-yl)methyl)-1,3-dioxane-2-carboxamide] |  |  |  | −9.0 ± 10.0 | % Inhibition PCSK9 (PCSK9 [4]; Concentration 1 μM, 1 µM): 39%; % Inhibition PCSK9 (PCSK9 [4]; Concentration 10 μM, 10 µM): 40%; % Inhibition PCSK9 (PCSK9 [4]; Concentration 100 μM, 100 µM): 51%
3 | Cc1oc(-c2ccncc2)nc1CC1COC(C)(C(=O)NCC2CCOCC2)OC1 (stereo not shown) [Example 84, 2-methyl-5-c-((5-methyl-2-(pyridin-4-yl)oxazol-4-yl)methyl)-N—((tetrahydro-2H-pyran-4-yl)methyl)-1,3-dioxane-2-carboxamide] |  |  |  | −25.8 ± 8.6 | Relative response (RU) (PCSK9 [1]): 2.23 RU; % Inhibition PCSK9 (PCSK9 [4]; Concentration 1 μM, 1 µM): 25%; % Inhibition PCSK9 (PCSK9 [4]; Concentration 10 μM, 10 µM): 29%; % Inhibition PCSK9 (PCSK9 [4]; Concentration 100 μM, 100 µM): 65%
4 | Cc1nc(-c2ccc(C(F)(F)F)cc2)sc1CC1COC(C)(C(=O)NO)OC1 (stereo not shown) [Example 91, N-hydroxy-2-methyl-5-((4-methyl-2-(4-(trifluoromethyl)phenyl)thiazol-5-yl)methyl)-1,3-dioxane-2-carboxamide] | 12 | 32 | 8 | −37.4 ± 8.8 | 

Continued, in another order:

Row | inhibition at 10 µM (PCSK9 [4]; Concentration 10 μM) [%] | inhibition at 100 µM (PCSK9 [4]; Concentration 100 μM) [%] | inhibition at 1 µM (PCSK9 [4]; Concentration 1 μM) [%] | Compound | % Change in LDL-C [2] [%] | also measured
5 | 15 | 20 | 24 | Cc1oc(-c2ccccc2)nc1CCC1COC(C)(C(=O)NCC2CCOCC2)OC1 (stereo not shown) [Example 37, 2-methyl-5-(2-(5-methyl-2-phenyloxazol-4-yl)ethyl)-N—((tetrahydro-2H-pyran-4-yl)methyl)-1,3-dioxane-2-carboxamide] | −35.4 ± 8.3 | 
6 | 25 | 11 | 20 | Cc1oc(-c2ccccc2)nc1CCC1COC(C)(C(=O)N2CCOCC2)OC1 (stereo not shown) [Example 40, (2-methyl-5-(2-(5-methyl-2-phenyloxazol-4-yl)ethyl)-1,3-dioxan-2-yl)(morpholino)methanone] | −34.1 ± 5.7 | 
7 | 16 | 49 | 20 | Cc1nc(-c2ccc(C(F)(F)F)cc2)sc1CC1COC(C)(C(=O)N2CCOCC2)OC1 (stereo not shown) [Example 93, (2-methyl-5-((4-methyl-2-(4-(trifluoromethyl)phenyl)thiazol-5-yl)methyl)-1,3-dioxan-2-yl)(morpholino)methanone] | −46.0 ± 6.2 | 

From patent US20120252796A1, “COMPOUNDS FOR THE TREATMENT OF DYSLIPIDEMIA AND RELATED DISEASES” (priority 2009, published 2012)
